# Results published in ChEMBL document CHEMBL5303711, “ECBD screening data for assay EOS300108” (2023).
# Counter-ions that a name gives are not always drawn. The source made the active and inactive calls. No rule for the calls is given here.
# Tested on: not listed separately
# Assay: (§1) Cytotoxicity activity against human HepG2 cells assessed by CellTiter-Glo luminescent cell viability assay.
# Format: toxicity, cell-based
# Set-up: assay stage confirmatory assay, source tissue liver
# Settings: HepG2 cells, read-out: IC50 relative
row,Structure (SMILES),CC50
1,Cc1ccc(-n2sc3ccccc3c2=O)cc1,8.7 µM (active)
2,O=C1C(Cl)=C(NCCN2CCOCC2)C(=O)c2ncccc21,4.5 µM (active)
3,O=c1c2ccccc2sn1-c1ccccc1,10.5 µM (active)
4,"O=C1C(=O)c2ccccc2-c2ccccc21 [9,10-PHENANTHRENEQUINONE]",1.1 µM (active)
5,COc1cc(/C=C/C(=O)CC(=O)/C=C/c2ccc(O)c(OC)c2)ccc1O [CURCUMIN],5.3 µM (active)
6,CN1CCN(c2ccc3nc(-c4c(N)c5c(F)cccc5[nH]c4=O)[nH]c3c2)CC1 [DOVITINIB],2.7 µM (active)
7,Cn1c(=O)c(F)c(Nc2ccc(I)cc2F)c2c(=O)n(C[C@@H](O)CO)cnc21 [TAK-733],< 0.1 µM (active)
8,CCC(CC)C(c1ccc(Nc2nc3ccccc3s2)cc1)n1cncn1 (centres undefined) [TALAROZOLE],14.4 µM (inactive)
9,CN[C@H](C(=O)N[C@H](C(=O)N(C)[C@H](/C=C(\C)C(=O)O)C(C)C)C(C)(C)C)C(C)(C)c1ccccc1 [TALTOBULIN],0.2 µM (active)
10,Cn1c(C#N)ccc1-c1ccc2c(c1)C(C)(C)OC(=S)N2 [TANAPROGET],4.6 µM (active)
11,Cc1coc2c1C(=O)C(=O)c1c-2ccc2c1CCCC2(C)C [TANSHINONE IIA],5 µM (active)
12,CC(C)c1c(O)cc(/C=C/c2ccccc2)cc1O [TAPINAROF],8.9 µM (active)
13,Cc1nc(-c2cn3c(n2)-c2ccc(-c4cnn(C(C)(C)C(N)=O)c4)cc2OCC3)n(C(C)C)n1 [TASELISIB],2.1 µM (active)
14,COc1cc([C@@H]2c3cc4c(cc3[C@@H](O[C@@H]3O[C@@H]5CO[C@@H](c6cccs6)O[C@H]5[C@H](O)[C@H]3O)[C@H]3COC(=O)[C@H]23)OCO4)cc(OC)c1O [TENIPOSIDE],6.5 µM (active)
15,CN1CCC(COc2cnc(-c3cccc(Cn4nc(-c5cccc(C#N)c5)ccc4=O)c3)nc2)CC1 [TEPOTINIB],3.4 µM (active)
16,CC(C)(C)c1ccc(C(O)CCCN2CCC(C(O)(c3ccccc3)c3ccccc3)CC2)cc1 (centres undefined) [TERFENADINE],3.1 µM (active)
17,CSc1ccc2c(c1)N(CCC1CCCCN1C)c1ccccc1S2 (centres undefined) [THIORIDAZINE],3.8 µM (active)
18,COc1cc2nccc(Oc3ccc(NC(=O)Nc4cc(C)on4)c(Cl)c3)c2cc1OC [TIVOZANIB],6.7 µM (active)
19,Cc1ccc(O)c([C@H](CCN(C(C)C)C(C)C)c2ccccc2)c1 [TOLTERODINE TARTRATE],14.2 µM (active)
20,CCOC(=O)N1c2ccc(C(F)(F)F)cc2[C@@H](N(Cc2cc(C(F)(F)F)cc(C(F)(F)F)c2)C(=O)OC)C[C@H]1CC [TORCETRAPIB],6.4 µM (active)
21,Cc1ccc(S(=O)(=O)N[C@@H](Cc2ccccc2)C(=O)CCl)cc1 [TPCK],7.9 µM (active)
22,CC(=O)Nc1cccc(-n2c(=O)n(C3CC3)c(=O)c3c(Nc4ccc(I)cc4F)n(C)c(=O)c(C)c32)c1 [TRAMETINIB],< 0.1 µM (active)

row,Structure (SMILES),CC50
1,NC(=S)N/N=C/c1ncccc1N [TRIAPINE],5.3 µM (active)
2,O=C(Nc1ccc(Cl)cc1)Nc1ccc(Cl)c(Cl)c1 [TRICLOCARBAN],42.9 µM (inactive)
4,COc1cc(NCc2ccc3nc(N)nc(N)c3c2C)cc(OC)c1OC [TRIMETREXATE],1.7 µM (active)
5,CC(C)[C@]12O[C@H]1[C@@H]1O[C@]13[C@]1(O[C@H]1C[C@H]1C4=C(CC[C@@]13C)C(=O)OC4)[C@@H]2O [TRIPTOLIDE],< 0.1 µM (active)
6,O=C1c2ccccc2-n2c1nc1ccccc1c2=O [TRYPTANTHRIN],4.3 µM (active)
7,CC(C)(C)c1cc(C=C(C#N)C#N)cc(C(C)(C)C)c1O [TYRPHOSTIN A9],0.8 µM (active)
8,COc1cc2ncnc(Nc3cccc(Cl)c3)c2cc1OC [TYRPHOSTIN AG-1478],8.3 µM (active)
9,CC(C)Nc1cc(-c2c[nH]c(C(=O)N[C@H](CO)c3cccc(Cl)c3)c2)c(Cl)cn1 [ULIXERTINIB],1 µM (active)
10,COc1cc2c(Nc3ccc(Br)cc3F)ncnc2cc1OCC1CCN(C)CC1 [VANDETANIB],2.6 µM (active)
11,C[C@@H]1COC(Nc2ccc3ncnc(Nc4ccc(OCc5nccs5)c(Cl)c4)c3c2)=N1 [VARLITINIB],50 µM (inactive)
12,N#Cc1ccc2[nH]cc(CCCCN3CCN(c4ccc5oc(C(N)=O)cc5c4)CC3)c2c1 [VILAZODONE],6.1 µM (active)
13,CC[C@]1(O)C[C@@H]2CN(CCc3c([nH]c4ccccc34)[C@@](C(=O)OC)(c3cc4c(cc3OC)N(C)[C@H]3[C@@](O)(C(=O)OC)[C@H](OC(C)=O)[C@]5(CC)C=CCN6CC[C@]43[C@@H]65)C2)C1 [VINBLASTINE SULFATE],4 µM (active)
14,CNC(=O)c1cccc(-c2ccc3c(N4CCOC[C@@H]4C)nc(N4CCOC[C@@H]4C)nc3n2)c1 [VISTUSERTIB],0.2 µM (active)
15,CC[C@@H]1C(=O)N(C)c2cnc(Nc3ccc(C(=O)N[C@H]4CC[C@H](N5CCN(CC6CC6)CC5)CC4)cc3OC)nc2N1C(C)C [VOLASERTIB],0.9 µM (active)
16,Cc1ccc(Sc2ccccc2N2CCNCC2)c(C)c1 [VORTIOXETINE],4.1 µM (active)
17,CNC(=O)c1ccccc1Nc1cc(Nc2ccc(N3CCOCC3)cc2OC)ncc1C(F)(F)F [VS-4718],3.7 µM (active)
18,COC[C@H]1OC(=O)c2coc3c2[C@@]1(C)C1=C(C3=O)[C@@H]2CCC(=O)[C@@]2(C)C[C@H]1OC(C)=O [WORTMANNIN],7.4 µM (active)
19,CC(C)c1cc(CNc2nc(Nc3cc(C4CC4)[nH]n3)cc(N3CCN(C)CC3)n2)on1 [XL-228],1.7 µM (active)
20,CC[C@@H]1[C@H](F)C(=O)N[C@@H]1COc1nccc2cc(C(N)=O)c(OC)cc12 [ZIMLOVISERTIB],6 µM (active)
21,FC(F)c1nc2ccccc2n1-c1nc(N2CCOCC2)nc(N2CCOCC2)n1 [ZSTK-474],1.2 µM (active)

# Tested on: HepG2
# Assay: as §1
# Format: toxicity, cell-based
# Set-up: assay stage confirmatory assay, source tissue liver
# Settings: hepg2, read-out: IC50 relative
row,Structure (SMILES),CC50
1,Cc1ccc(-n2sc3ccccc3c2=O)cc1,9.1 µM (active)
2,O=C1C(Cl)=C(NCCN2CCOCC2)C(=O)c2ncccc21,4 µM (active)
3,O=c1c2ccccc2sn1-c1ccccc1,13 µM (inactive)
4,"O=C1C(=O)c2ccccc2-c2ccccc21 [9,10-PHENANTHRENEQUINONE]",1.2 µM (active)
5,COc1cc(/C=C/C(=O)CC(=O)/C=C/c2ccc(O)c(OC)c2)ccc1O [CURCUMIN],7.1 µM (active)
6,CN1CCN(c2ccc3nc(-c4c(N)c5c(F)cccc5[nH]c4=O)[nH]c3c2)CC1 [DOVITINIB],4.4 µM (active)
